These results are taken from PubChem BioAssay (NCI).

Some test systems named below: U251 CNS; SNB-75 CNS; RPMI-8226 leukemia; HOP-62 NSCLC; HOP-92 NSCLC; NCI-H23 lung; NCI-H460 lung; SK-OV-3 ovarian; RXF 393 renal; MOLT-4 leukemia.
What all share (test): NCI anticancer screen, dose series, 48 h

Where “and” joins values, the source holds several entries; their conditions need not be identical. Equal values may be shown once.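 Briefly, cells in 96-well plates were exposed to five compound concentrations for 48 h, and endpoints were estimated by linear interpolation. GI50: concentration for 50% inhibition of growth. The concentration for full growth arrest is given as TGI.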

Consider `CC[C@@]1(O)C(=O)OCc2c1cc1n(c2=O)Cc2cc3cc(N)ccc3nc2-1`, for which the GI50 with U251 CNS is 0.0013 µM; in the assay on RPMI-8226 leukemia, 0.106 µM and 0.0994 µM; in the assay on HOP-62 NSCLC it was 0.00135 µM; in the assay with HOP-92 NSCLC, 0.0132 µM and < 0.025 µM; with NCI-H460 lung, 0.00149 µM; in the assay with SK-OV-3 ovarian, 0.035 µM. The figures for the GI50 in the assay with RXF 393 renal and in the assay on MOLT-4 leukemia were 0.0489 µM and 0.00648 µM, respectively. The TGI with U251 CNS is 0.134 µM; in the assay with SNB-75 CNS it was 0.364 µM and 0.0446 µM; in the assay on RPMI-8226 leukemia, 4.45 µM; in the assay with HOP-62 NSCLC, 0.0157 µM and < 0.0151 µM; in the assay on HOP-92 NSCLC it was 0.773 µM and 0.247 µM; in the assay with NCI-H23 lung it was 0.0773 µM and 0.0247 µM. The TGI in the assay with NCI-H460 lung is 0.212 µM; in the assay with SK-OV-3 ovarian, 2.64 µM and 0.756 µM; with MOLT-4 leukemia, 0.143 µM.

With `Cn1cc(CNCC2CCN(c3ncc(C(=O)NO)cn3)CC2)c2ccccc21`, the GI50 is 0.0133 µM in the assay on U251 CNS; less than 0.0108 µM with SNB-75 CNS; less than 0.01 µM with RPMI-8226 leukemia; 0.0128 µM in the assay on HOP-62 NSCLC; less than 0.0107 µM in the assay with HOP-92 NSCLC; 0.0218 µM with NCI-H23 lung. Moreover, the GI50 in the assay on NCI-H460 lung was 0.0131 µM; in the assay with SK-OV-3 ovarian it was 0.0199 µM; with RXF 393 renal it was less than 0.0107 µM; in the assay with MOLT-4 leukemia it was less than 0.0135 µM. Besides, the TGI with U251 CNS came to 0.128 µM; in the assay with SNB-75 CNS it was 8.62 µM; with RPMI-8226 leukemia, 40.5 µM; with HOP-62 NSCLC it was 0.838 µM; in the assay with HOP-92 NSCLC, 0.0399 µM; in the assay on NCI-H23 lung, 0.436 µM. The TGI in the assay with NCI-H460 lung is 11.5 µM; with SK-OV-3 ovarian, 0.361 µM; in the assay with RXF 393 renal, 0.0385 µM; in the assay with MOLT-4 leukemia it was greater than 52.7 µM.

Regarding `CNC(=S)N/N=C/c1ccc([N+](=O)[O-])s1`, the TGI in the assay on U251 CNS, with SNB-75 CNS, in the assay on RPMI-8226 leukemia, with HOP-62 NSCLC, in the assay with HOP-92 NSCLC and with NCI-H23 lung was greater than 10 µM each time. Further, the TGI with NCI-H460 lung, with SK-OV-3 ovarian, in the assay with RXF 393 renal and with MOLT-4 leukemia was greater than 10 µM throughout.

Take `COc1ccc2c(c1)[n+]([O-])c(/C(C)=N/NC(=O)CC#N)c[n+]2[O-]`: the TGI with U251 CNS, in the assay with SNB-75 CNS, with RPMI-8226 leukemia, in the assay with HOP-62 NSCLC, in the assay with HOP-92 NSCLC and in the assay on NCI-H23 lung was greater than 100 µM each time. For the same compound, the TGI with NCI-H460 lung, with SK-OV-3 ovarian, in the assay on RXF 393 renal and in the assay with MOLT-4 leukemia was greater than 100 µM in each case.

Take `CCN(CC)c1ccc2c(c1)Nc1cc(=C(C#N)C#N)c3ccccc3c1=N2`: the TGI in the assay with U251 CNS, in the assay with SNB-75 CNS, in the assay on RPMI-8226 leukemia, in the assay on HOP-62 NSCLC, in the assay with HOP-92 NSCLC and with NCI-H23 lung was greater than 100 µM each time. Moreover, the TGI with NCI-H460 lung, in the assay with SK-OV-3 ovarian, in the assay with RXF 393 renal and in the assay on MOLT-4 leukemia was greater than 100 µM each time.

Turning to `N#CC(NNC(=O)c1ccccc1O)c1cccc(O)c1` (configuration not stated), the TGI in the assay with U251 CNS was greater than 100 µM; with SNB-75 CNS, greater than 100 µM; in the assay with RPMI-8226 leukemia, greater than 100 µM; in the assay on HOP-62 NSCLC, greater than 100 µM; with HOP-92 NSCLC it was greater than 100 µM; in the assay on NCI-H23 lung, 21.3 µM. For the same compound, the TGI was greater than 100 µM with NCI-H460 lung, greater than 100 µM in the assay on SK-OV-3 ovarian, 85.3 µM with RXF 393 renal and greater than 100 µM with MOLT-4 leukemia.

With `CC(C)(C)NC(=O)[C@H]1C[C@H]2CCCC[C@H]2CN1C[C@@H](O)[C@H](Cc1ccccc1)NC(=O)[C@H](CC(N)=O)NC(=O)c1ccc2ccccc2n1`, the GI50 in the assay on U251 CNS was 11.9 µM; with SNB-75 CNS, 12.5 µM; in the assay with RPMI-8226 leukemia, 3.5 µM; in the assay on HOP-62 NSCLC, 15.2 µM; in the assay with HOP-92 NSCLC, 4.17 µM; in the assay on NCI-H23 lung, 16 µM. In addition, the GI50 was 12.7 µM in the assay on NCI-H460 lung, 18.9 µM in the assay with SK-OV-3 ovarian, 12.5 µM with RXF 393 renal and 1.9 µM in the assay with MOLT-4 leukemia. For the same compound, the TGI with U251 CNS worked out at 24.4 µM; in the assay with SNB-75 CNS, 28.4 µM; with RPMI-8226 leukemia, 14.8 µM; with HOP-62 NSCLC it was 30.7 µM; in the assay on HOP-92 NSCLC it was 20 µM; with NCI-H23 lung, 33.2 µM. For the same compound, the TGI in the assay with NCI-H460 lung is greater than 51.4 µM; with SK-OV-3 ovarian, 42.9 µM; in the assay on RXF 393 renal, 32.1 µM; in the assay on MOLT-4 leukemia it was 21.8 µM.

With `CN[C@@H]1C[C@H]2O[C@@](C)([C@@H]1OC)n1c3ccccc3c3c4c(c5c6ccccc6n2c5c31)C(=O)N[C@@H]4O`, the TGI with U251 CNS is 0.3 µM and 0.333 µM; in the assay on SNB-75 CNS, 0.0143 µM and 0.0271 µM; in the assay with HOP-62 NSCLC, 0.17 µM and 0.334 µM; in the assay on NCI-H23 lung, 1.53 µM; in the assay with NCI-H460 lung it was 0.3 µM and 1.47 µM; in the assay on SK-OV-3 ovarian, 0.187 µM and 0.28 µM. The TGI with RXF 393 renal was 0.0345 µM and < 0.0219 µM; with MOLT-4 leukemia it was 0.0981 µM and 0.654 µM. The GI50 in the assay with SNB-75 CNS is 0.00322 µM; with RPMI-8226 leukemia, 0.0419 µM; with HOP-62 NSCLC, 0.0401 µM; in the assay with HOP-92 NSCLC it was less than 0.0205 µM; in the assay with SK-OV-3 ovarian it was 0.0467 µM; with RXF 393 renal, 0.00955 µM. Also, in the assay on MOLT-4 leukemia, the GI50 was 0.0228 µM.

With `O=C1c2ccccc2-n2c1nc1ccccc1c2=O`, the TGI in the assay with U251 CNS was 37.5 µM; in the assay with SNB-75 CNS, 83.8 µM; with RPMI-8226 leukemia, greater than 100 µM; with HOP-62 NSCLC, 41 µM; with HOP-92 NSCLC, greater than 100 µM; in the assay on NCI-H23 lung it was 33.8 µM. In addition, the TGI with NCI-H460 lung is 12 µM; in the assay with SK-OV-3 ovarian it was greater than 100 µM; with RXF 393 renal it was greater than 81.6 µM; in the assay with MOLT-4 leukemia it was greater than 100 µM.

In the case of `COc1cc(Cn2c(-c3nonc3N)nc3ccccc32)ccc1C`, the GI50 in the assay with U251 CNS is 0.501 µM; with SNB-75 CNS, 0.248 µM; in the assay with RPMI-8226 leukemia it was 0.493 µM; in the assay with HOP-62 NSCLC, 0.568 µM; in the assay on HOP-92 NSCLC it was 0.566 µM; in the assay on NCI-H23 lung, 1.02 µM. Also, the GI50 is 0.377 µM in the assay on NCI-H460 lung, 0.493 µM with SK-OV-3 ovarian, 0.304 µM in the assay on RXF 393 renal and 0.692 µM with MOLT-4 leukemia. For the same compound, the TGI is 15.6 µM in the assay with U251 CNS; 1.13 µM in the assay with SNB-75 CNS; greater than 100 µM in the assay with RPMI-8226 leukemia; 21.3 µM in the assay with HOP-62 NSCLC; 30 µM in the assay with HOP-92 NSCLC; greater than 55.6 µM in the assay with NCI-H23 lung. Further, the TGI with NCI-H460 lung was greater than 100 µM; in the assay on SK-OV-3 ovarian, 32 µM; with RXF 393 renal it was 3.35 µM; with MOLT-4 leukemia it was greater than 100 µM.
